{
  "source": "patent US6914045B2",
  "about": "“Glycopeptide antibiotics” (Wyeth Holdings Corporation, priority 2001, dated 2005)",
  "experiment_in_all_cases": "in vitro antibacterial evaluation, MIC by broth dilution",
  "assay_type_in_all_cases": "cell-based",
  "key": {"[1]": {"system": "Enterococcus sp.", "conditions": "broth dilution, 18 hours at 35° C.", "outline": "(§1)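 Broth dilution per NCCLS standard M7-A2 in Muller-Hinton II […], with an inoculum of 5×10^5 CFU/mL and antibiotic spanning 64-0.06 μg/mL. The MIC is the lowest concentration that inhibits growth of the organism.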"}, "[2]": {"system": "Staphylococcus sp.", "conditions": "broth dilution, 18 hours at 35° C.", "outline": "as §1"}, "[3]": {"system": "Streptococcus sp.", "conditions": "broth dilution, 18 hours at 35° C.", "outline": "as §1"}, "[4]": {"system": "Escherichia coli", "conditions": "18 hours at 35° C.", "outline": "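Inoculum 5×10^5 CFU/mL; concentrations 64 to 0.06 μg/mL; MIC defined as lowest inhibitory level. Conducted by broth dilution under NCCLS guidelines.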"}},
  "note": "Numbered stars: 1 amine (or outer) side, 2 acyl side, 3 side chain; on linkers, the order of the positions; unused ones are H or OH. Square brackets hold non-standard residues; d marks the D form. Peptide text beside a SMILES is read from it. ξ: configuration not given here. X1 = N=C1NCC(C(O)C(N[*:1])C(=O)[*:2])N1C1OC(CO)C(O)C(O)C1O; ξEnduracididine(βξ-OH,4'ξ) = N=C1NCC(C(O)C(N)C(=O)O)N1",
  "data": [
    {"smiles": "N=C1NCC(C(O)C2NC(=O)C(Cc3ccc(O)cc3)NC(=O)C(Cc3ccccc3)NC(=O)CNC(=O)C(CO)NC(=O)C(C(O)C3CNC(=N)N3C3OC(CO)C(O)C(O)C3O)NC2=O)N1", "note": "(stereo not drawn) [Example 279a, Cyclo[glycylphenylalanyltyrosyl-3-(2-iminoimidazolidin-4-yl)seryl-3-(3-hexopyranosyl-2-iminoimidazolidin-4-yl)serylseryl]] (cyclo(GFY[ξEnduracididine(βξ-OH,4'ξ)][X1]S); configuration not given here)", "values": [
      {"measurement": "MIC Enterococcus avium (GC 4558)", "setting": "[1]; Enterococcus avium (GC 4558)", "value": ">64", "unit": "µg/mL"},
      {"measurement": "MIC Enterococcus faecalis (ATCC 29212)", "setting": "[1]; Enterococcus faecalis (ATCC 29212)", "value": ">64", "unit": "µg/mL"},
      {"measurement": "MIC Enterococcus faecalis (GC 4553)", "setting": "[1]; Enterococcus faecalis (GC 4553)", "value": ">64", "unit": "µg/mL"},
      {"measurement": "MIC Enterococcus faecalis (GC 4554)", "setting": "[1]; Enterococcus faecalis (GC 4554)", "value": ">64", "unit": "µg/mL"},
      {"measurement": "MIC Enterococcus faecalis (GC 6189)", "setting": "[1]; Enterococcus faecalis (GC 6189)", "value": ">64", "unit": "µg/mL"},
      {"measurement": "MIC Enterococcus faecium (GC 2243)", "setting": "[1]; Enterococcus faecium (GC 2243)", "value": ">64", "unit": "µg/mL"},
      {"measurement": "MIC Enterococcus faecium (GC 4556)", "setting": "[1]; Enterococcus faecium (GC 4556)", "value": ">64", "unit": "µg/mL"},
      {"measurement": "MIC Enterococcus faecium (GC 4557)", "setting": "[1]; Enterococcus faecium (GC 4557)", "value": 64, "unit": "µg/mL"},
      {"measurement": "MIC Enterococcus faecalis (ATCC 29212)", "setting": "[1]; strain ATCC 29212", "value": ">64", "unit": "µg/mL"},
      {"measurement": "MIC Enterococcus faecalis (GC 2242)", "setting": "[1]; strain GC 2242", "value": ">64", "unit": "µg/mL"},
      {"measurement": "MIC Enterococcus faecium (GC 2243)", "setting": "[1]; strain GC 2243", "value": ">64", "unit": "µg/mL"},
      {"measurement": "MIC Enterococcus faecalis (GC 2691)", "setting": "[1]; strain GC 2691", "value": ">64", "unit": "µg/mL"},
      {"measurement": "MIC Enterococcus faecalis (GC 3059)", "setting": "[1]; strain GC 3059", "value": ">64", "unit": "µg/mL"},
      {"measurement": "MIC Enterococcus faecalis (GC 4552)", "setting": "[1]; strain GC 4552", "value": ">64", "unit": "µg/mL"},
      {"measurement": "MIC Enterococcus faecalis (GC 4553)", "setting": "[1]; strain GC 4553", "value": ">64", "unit": "µg/mL"},
      {"measurement": "MIC Enterococcus faecalis (GC 4554)", "setting": "[1]; strain GC 4554", "value": ">64", "unit": "µg/mL"},
      {"measurement": "MIC Enterococcus faecium (GC 4556)", "setting": "[1]; strain GC 4556", "value": ">64", "unit": "µg/mL"},
      {"measurement": "MIC Enterococcus faecium (GC 4557)", "setting": "[1]; strain GC 4557", "value": 64, "unit": "µg/mL"},
      {"measurement": "MIC Enterococcus avium (GC 4558)", "setting": "[1]; strain GC 4558", "value": ">64", "unit": "µg/mL"},
      {"measurement": "MIC Enterococcus faecalis (GC 6189)", "setting": "[1]; strain GC 6189", "value": ">64", "unit": "µg/mL"},
      {"measurement": "MIC Coagulase Negative Staphylococcus (GC 4547)", "setting": "[2]", "value": 64, "unit": "µg/mL"},
      {"measurement": "MIC Coagulase Negative Staphylococcus (GC 4548)", "setting": "[2]", "value": ">64", "unit": "µg/mL"},
      {"measurement": "MIC Coagulase Negative Staphylococcus (GC 4549)", "setting": "[2]", "value": 64, "unit": "µg/mL"},
      {"measurement": "MIC Coagulase Negative Staphylococcus (GC 4551)", "setting": "[2]", "value": ">64", "unit": "µg/mL"},
      {"measurement": "MIC Coagulase Negative Staphylococcus (GC 6257)", "setting": "[2]", "value": 64, "unit": "µg/mL"},
      {"measurement": "MIC Staphylococcus aureus (ATCC 29213)", "setting": "[2]", "value": ">64", "unit": "µg/mL"},
      {"measurement": "MIC Staphylococcus aureus (GC 1131)", "setting": "[2]", "value": ">64", "unit": "µg/mL"},
      {"measurement": "MIC Staphylococcus aureus (GC 3051)", "setting": "[2]", "value": ">64", "unit": "µg/mL"},
      {"measurement": "MIC Staphylococcus aureus (GC 3053)", "setting": "[2]", "value": ">64", "unit": "µg/mL"},
      {"measurement": "MIC Staphylococcus aureus (GC 4541)", "setting": "[2]", "value": ">64", "unit": "µg/mL"},
      {"measurement": "MIC Staphylococcus aureus (GC 4542)", "setting": "[2]", "value": ">64", "unit": "µg/mL"},
      {"measurement": "MIC Staphylococcus aureus (GC 4544)", "setting": "[2]", "value": ">64", "unit": "µg/mL"},
      {"measurement": "MIC Staphylococcus aureus (GC 4545)", "setting": "[2]", "value": ">64", "unit": "µg/mL"},
      {"measurement": "MIC Staphylococcus aureus-SMITH (GC 4543)", "setting": "[2]", "value": ">64", "unit": "µg/mL"},
      {"measurement": "MIC Staphylococcus haemolyticus (GC 4546)", "setting": "[2]", "value": 64, "unit": "µg/mL"},
      {"measurement": "MIC Staphylococcus aureus (ATCC 29213)", "setting": "[2]; strain ATCC 29213", "value": ">64", "unit": "µg/mL"},
      {"measurement": "MIC Staphylococcus aureus (GC 1131)", "setting": "[2]; strain GC 1131", "value": ">64", "unit": "µg/mL"},
      {"measurement": "MIC Staphylococcus aureus (GC 3051)", "setting": "[2]; strain GC 3051", "value": ">64", "unit": "µg/mL"},
      {"measurement": "MIC Staphylococcus aureus (GC 3053)", "setting": "[2]; strain GC 3053", "value": ">64", "unit": "µg/mL"},
      {"measurement": "MIC Staphylococcus aureus (GC 4541)", "setting": "[2]; strain GC 4541", "value": ">64", "unit": "µg/mL"},
      {"measurement": "MIC Staphylococcus aureus (GC 4542)", "setting": "[2]; strain GC 4542", "value": ">64", "unit": "µg/mL"},
      {"measurement": "MIC Staphylococcus aureus (GC 4544)", "setting": "[2]; strain GC 4544", "value": ">64", "unit": "µg/mL"},
      {"measurement": "MIC Staphylococcus aureus (GC 4545)", "setting": "[2]; strain GC 4545", "value": ">64", "unit": "µg/mL"},
      {"measurement": "MIC Staphylococcus haemolyticus (GC 4546)", "setting": "[2]; strain GC 4546", "value": 64, "unit": "µg/mL"},
      {"measurement": "MIC Coagulase Negative Staphylococcus (GC 4547)", "setting": "[2]; strain GC 4547", "value": 64, "unit": "µg/mL"},
      {"measurement": "MIC Coagulase Negative Staphylococcus (GC 4548)", "setting": "[2]; strain GC 4548", "value": ">64", "unit": "µg/mL"},
      {"measurement": "MIC Coagulase Negative Staphylococcus (GC 4549)", "setting": "[2]; strain GC 4549", "value": 64, "unit": "µg/mL"},
      {"measurement": "MIC Coagulase Negative Staphylococcus (GC 4551)", "setting": "[2]; strain GC 4551", "value": ">64", "unit": "µg/mL"},
      {"measurement": "MIC Coagulase Negative Staphylococcus (GC 6257)", "setting": "[2]; strain GC 6257", "value": 64, "unit": "µg/mL"},
      {"measurement": "MIC Staphylococcus aureus-SMITH (GC 4543)", "setting": "[2]; strain SMITH GC 4543", "value": ">64", "unit": "µg/mL"},
      {"measurement": "MIC Streptococcus pneumoniae (ATCC 6301)", "setting": "[3]; strain ATCC 6301", "value": 64, "unit": "µg/mL"},
      {"measurement": "MIC Streptococcus pneumoniae (GC 1894)", "setting": "[3]; strain GC 1894", "value": 64, "unit": "µg/mL"},
      {"measurement": "MIC Streptococcus pyogenes (GC 4563)", "setting": "[3]; strain GC 4563", "value": 64, "unit": "µg/mL"},
      {"measurement": "MIC Streptococcus agalactiae (GC 4564)", "setting": "[3]; strain GC 4564", "value": ">64", "unit": "µg/mL"},
      {"measurement": "MIC Streptococcus pneumoniae (GC 4565)", "setting": "[3]; strain GC 4565", "value": ">64", "unit": "µg/mL"},
      {"measurement": "MIC Escherichia coli (ATCC 25922)", "setting": "[4]; Escherichia coli (ATCC 25922)", "value": 64, "unit": "µg/mL"},
      {"measurement": "MIC Escherichia coli (GC 4559)", "setting": "[4]; Escherichia coli (GC 4559)", "value": 64, "unit": "µg/mL"},
      {"measurement": "MIC Escherichia coli (GC 4560)", "setting": "[4]; Escherichia coli (GC 4560)", "value": 32, "unit": "µg/mL"}
    ]}
  ]
}
